Assay results reported in patent US5190924A, “Peptide amides and amide dimers useful as muscle relaxants” (BOC Health Care, Inc., priority 1991, dated 1993).
Where two headings read alike, the source gives them in different places.

Tests used:
[1] = tested on: neuromuscular junction; assay: Mouse inclined screen grip strength test; type: in vivo; conditions: mice on 45° inclined screen; dose required to inhibit grip strength
Experimental: The first step, in mice, establishes a preliminary estimate of the potency and efficacy of the compounds. The animals were placed on a screen, inclined 45° to the horizontal. Effective doses caused the mice to lose their grip and slide down the inclined screen. […]

[2] = tested on: neuromuscular junction; type: in vivo; conditions: for Neuromuscular Junction Blocking Activity (ED90), Rabbit: Table I, rabbit paw twitch; for ED90 (potency: dose required to depress twitch tension to 10% of control): Table II, anesthetized rabbits, marginal ear vein; for Duration (time from injection until train-of-four recovered to 75%) / HR (% change from pre-drug heart rate) / onset T85% (time from injection until 85% of maximal drug effect) / BP (% change of pre-drug blood pressure): rabbit
From the text: In a large series of similar telaxants, the rabbit dose is typically 125% of that in mice. The mechanism of action was also confirmed in this test by observing train-of-four and tetanus fade, post-tetanic potentiation of single twitches and administration of the anticholinesterase drug neostig- mine which reverses the relaxation. Reversibility, rapid onset and short duration are important factors to the anesthesiologist.
The following is a brief description of the methodologies used in rabbits to describe neuromuscular blocking activity of the subject compounds. A more detailed description of these methods is presented in "Microcomputer Use in Measuring Onset, Duration, and Recovery from Non-Depolarizing Skeletal Muscle Relaxants in Rabbits", P. D. Thut et al, Drug development Research 5:182, 1985.
Male New Zealand white rabbits weighing between 2.5 and 3.4 kg were anesthetized with pentobarbital (30 mg/kg) and placed on their backs upon a 40° C. water filled temperature regulation pad. Following tracheostomy, the lungs were mechanically ventilated at 28 breaths per minute with room air, using an open system delivering 200 mi/stroke. This ventilation maintained pCO2 at 38 mmHG and pO2 at 85 mmHg. Direct arterial blood pressure was measured from the right common carotid artery. The test compounds were administered through a canula placed in the marginal ear vein. Each foreleg was taped to a cushioned plate held in a femur clamp attached to the spinal board rack. The left centeral digit of each paw was connected to a force displacement transducer for measurement of muscle tension. Nerve stimulation was provided by pairs of pin electrodes placed on both sides of the ulnar nerve at the elbow of both forearms. The right ulnar nerve was stimulated at […] for 0.5 msec duration. The left ulnar nerve was similarly stimulated, every 15 seconds, with addition of interspersed trains-of-four and tetanizing stimuli. The parameters reported in Table II are: potency (ED90), which is the dose required to depress twitch tension to 10% of its control value; onset (T85%), which is the time from injection unit 85% of the maximal drug effect is achieved, duration, which is the time from injection until the train-of-four has recovered to 75%, blood pressure (BP), which is the percentage change of pre-drug blood pressure; and heart rate (HR), which is the percentage change from pre-drug heart rate.

[3] = equi-efficacious dose, arterial blood pressure

Row | Compound | Neuromuscular Junction Blocking Activity (ED90), Mouse [1] | Neuromuscular Junction Blocking Activity (ED90), Rabbit [2] | ED90 (potency: dose required to depress twitch tension to 10% of control) [2] | Duration (time from injection until train-of-four recovered to 75%) ([2]; equi-efficacious dose) | HR (% change from pre-drug heart rate) ([2]; equi-efficacious dose) | onset T85% (time from injection until 85% of maximal drug effect) ([2]; equi-efficacious dose) | BP (% change of pre-drug blood pressure) [2, 3] | BP (% change of pre-drug blood pressure) ([2]; in vivo) | HR (% change from pre-drug heart rate) ([2]; in vivo)
1 | C[N+](C)(C)[C@@H](Cc1ccccc1)C(=O)NCCCCCCCCCCNC(=O)[C@H](Cc1ccccc1)[N+](C)(C)C [Compound C, bis-(N,N,N-trimethyl-L-phenylalanyl) -decane-1,10-diamide] | 1.259 mg/kg | 4.408 mg/kg | 4.41 mg/kg | 17.4 min | -0.80 % change | 37.60 s | -40.30 % change | – | –
2 | CC(C)CC(NC(=O)C(Cc1ccccc1)NC(=O)C(CC(C)C)[N+](C)(C)C)C(=O)NCCCCC[N+](C)(C)C.O=C([O-])C(F)(F)F.O=C([O-])C(F)(F)F (stereo not drawn) [Compound B, Me3 N^+ -Leu-Phe-Leu-NH-(CH2)5 -N^+ Me3 2(CF3 CO2)^=] | 3.981 mg/kg | – | – | – | – | – | – | – | –
3 | CC(C)CC(NC(=O)C(Cc1ccccc1)NC(=O)C(CC(C)C)[N+](C)(C)C)C(=O)NCCCCCCC[N+](C)(C)C [Compound E, N,N,N-trimethyl-L-leucyl-L-phenylalanyl-L-Leucine-(7-trimethylammonium) heptylamide] | 1.995 mg/kg | – | – | – | – | – | – | – | –
4 | CC(C)CC(NC(=O)C(Cc1ccccc1)[N+](C)(C)C)C(=O)NCC[N+](C)(C)C.O=C([O-])C(F)(F)F.O=C([O-])C(F)(F)F (stereo not drawn) [Compound D, Me3 N^+ -Phe-Leu-NH-(CH2)2 -N^+ Me3 2(CF3 CO2)^=] | 16.000 mg/kg | 31.13 mg/kg | 31.13 mg/kg | 15.00 min | 4.60 % change | 36.3 s | -28.30 % change | – | –
5 | CC(=O)O[C@H]1C[C@@H]2CC[C@@H]3[C@H](CC[C@@]4(C)[C@H]3C[C@H]([N+]3(C)CCCCC3)[C@@H]4OC(C)=O)[C@@]2(C)C[C@@H]1[N+]1(C)CCCCC1 [pancuronium] | – | – | 0.02 mg/kg | 32.50 min | 0.00 % change | 147.50 s | 2.70 % change | – | –
6 | COc1ccc(CC2c3cc(OC)c(OC)cc3CC[N+]2(C)CCC(=O)OCCCCCOC(=O)CC[N+]2(C)CCc3cc(OC)c(OC)cc3C2Cc2ccc(OC)c(OC)c2)cc1OC (stereo not drawn) [atracurium] | 0.631 mg/kg | 0.050 mg/kg | 0.05 mg/kg | 14.30 min | – | 126.90 s | – | -3.40 % change | -1.00 % change
7 | C[N+](C)(C)C(Cc1ccccc1)C(=O)NCCCCCCNC(=O)C(Cc1ccccc1)[N+](C)(C)C.[I-].[I-] (stereo not drawn) [Compound A, Me3 N^+ -Phe-NH-(CH2)6 -NH-Phe-N^+ Me3 2I^-] | 7.940 mg/kg | – | – | – | – | – | – | – | –
8 | CC(=O)O[C@H]1C[C@@H]2CC[C@@H]3[C@H](CC[C@@]4(C)[C@H]3C[C@H]([N+]3(C)CCCCC3)[C@@H]4OC(C)=O)[C@@]2(C)C[C@@H]1N1CCCCC1 [vecuronium] | 0.025 mg/kg | 0.020 mg/kg | 0.02 mg/kg | 16.80 min | -1.90 % change | 97.30 s | 1.10 % change | – | –
